Measurements from patent publication US8946273B2, “S-Triazolyl alpha-mercapto acetanilides as inhibitors of HIV reverse transcriptase” (priority 2011, dated 2015).

Columns and labels:
[1] = biological target: mutant HIV reverse transcriptases (Human immunodeficiency virus type 1, UniProt P12497, Y775L, cells depend on it); format: cell-based
[2] = biological target: mutant HIV reverse transcriptases (Human immunodeficiency virus type 1, UniProt P12497, Y768C, cells depend on it); format: cell-based
[3] = test system: wild type HIV-1; assay: microbe, parasite or virus in culture; format: cell-based, human immunodeficiency virus type 1 (HIV-1); settings: Human immunodeficiency virus 1, Hela-JC53, read-out: EC50 WT
[4] = biological target: T1, wild-type HIV reverse transcriptase (Human immunodeficiency virus type 1 group M subtype B, UniProt P04585); assay: Activity on wild type reverse transcriptase (Table 1 IC50 WT); format: biochemical
T1 construct: wild-type and four mutant HIV reverse transcriptases

With `CCNC(=O)c1ccc(NC(=O)CSc2nnc(Br)n2-c2ccc(CC)c3ccccc23)c(Cl)c1` [compound 131] the EC50 [1] was < 50 nM, the EC50 [2] was < 50 nM and the EC50 [3] was < 50 nM. For the same molecule, the IC50 [4] was < 50 nM.
For `CCc1ccc(-n2c(Br)nnc2SCC(=O)Nc2ccc(C(=O)N3CCC(CN)CC3)cc2Cl)c2ccccc12` [compound 138], the EC50 [1] was < 50 nM, the EC50 [2] was < 50 nM and the EC50 [3] was < 50 nM. For the same molecule, the IC50 [4] was < 50 nM.
In the case of `CCOC(=O)CN(C)C(=O)c1ccc(NC(=O)CSc2nnc(Br)n2-c2ccc(CC)c3ccccc23)c(Cl)c1` [compound 108], the EC50 [1] is reported as < 50 nM, the EC50 [2] is reported as < 50 nM and the EC50 [3] is reported as < 50 nM. For the same molecule, the IC50 [4] was < 50 nM.
`CCc1ccc(-n2c(Br)nnc2SCC(=O)Nc2ccc(C(=O)NCC(C)(C)N)cc2Cl)c2ccccc12` [compound 136] was tested, and the EC50 [1] was < 50 nM, the EC50 [2] was < 50 nM and the EC50 [3] was < 50 nM. The IC50 [4] was < 50 nM.
With `CNS(=O)(=O)c1ccc(NC(=O)CSc2nnc(C(F)F)n2-c2ccc(C)c3c2CCCC3)c(Cl)c1` [compound 51] the EC50 [1] was < 50 nM, the EC50 [2] was < 50 nM and the EC50 [3] was < 50 nM. The IC50 [4] was < 50 nM.
With `CN(CC(=O)O)C(=O)c1ccc(NC(=O)CSc2nnc(Br)n2-c2ccc(C3CC3)c3ccccc23)c(Cl)c1` [compound 111] the EC50 [1] was > 100 nM, the EC50 [2] was > 100 nM and the EC50 [3] was 50 to 100 nM. The IC50 [4] was < 50 nM.
`CC(C)OC(=O)CNC(=O)c1ccc(NC(=O)CSc2nnc(Br)n2-c2ccc(C3CC3)c3ccccc23)c(Cl)c1` [compound 129] was tested, and the EC50 [1] was < 50 nM, the EC50 [2] was < 50 nM and the EC50 [3] was < 50 nM. For the same molecule, the IC50 [4] was < 50 nM.
For `CCc1ccc(-n2c(SCC(=O)Nc3ccc(C(=O)O)cc3Cl)nnc2C(F)(F)F)c2ccccc12` [compound 16], the EC50 [1] was > 100 nM, the EC50 [2] was 50 to 100 nM and the EC50 [3] was < 50 nM. For the same molecule, the IC50 [4] was < 50 nM.
`O=C(CSc1nnc(Br)n1-c1ccc(C2CC2)cc1C(F)(F)F)Nc1ccc(C(=O)O)cc1Cl` [compound 30] was tested, and the EC50 [1] was > 100 nM, the EC50 [2] was < 50 nM and the EC50 [3] was < 50 nM. The IC50 [4] was < 50 nM.
In the case of `CCc1ccc(-n2c(Br)nnc2SCC(=O)Nc2ccc(C(=O)NCC3CCCO3)cc2Cl)c2ccccc12` (stereo not drawn) [compound 125], the EC50 [1] is reported as < 50 nM, the EC50 [2] is reported as < 50 nM and the EC50 [3] is reported as < 50 nM. The IC50 [4] was < 50 nM.
For `Cc1ccc(-n2c(SCC(=O)Nc3ccc(S(=O)(=O)NC(C(=O)O)C(C)C)cc3Cl)nnc2C(F)F)c2c1CCCC2` (stereo not drawn) [compound 60], the EC50 [1] was > 100 nM, the EC50 [2] was > 100 nM and the EC50 [3] was > 100 nM. The IC50 [4] was < 50 nM.
`CCc1ccc(-n2c(Br)nnc2SCC(=O)Nc2ccc(C(=O)N[C@@H](CO)C(=O)OC)cc2Cl)c2ccccc12` [compound 140] was tested, and the EC50 [1] was < 50 nM, the EC50 [2] was < 50 nM and the EC50 [3] was < 50 nM. For the same molecule, the IC50 [4] was < 50 nM.
`CC[C@H](C)[C@H](NC(=O)c1ccc(NC(=O)CSc2nnc(Br)n2-c2ccc(C3CC3)c3ccccc23)c(Cl)c1)C(=O)O` [compound 135] was tested, and the EC50 [1] was > 100 nM, the EC50 [2] was < 50 nM and the EC50 [3] was < 50 nM. The IC50 [4] was < 50 nM.
For `CCc1ccc(-n2c(CF)nnc2SCC(=O)Nc2ccc(C(=O)O)cc2Cl)c2ccccc12` [compound 17], the EC50 [1] was > 100 nM, the EC50 [2] was < 50 nM and the EC50 [3] was < 50 nM. For the same molecule, the IC50 [4] was < 50 nM.
`NS(=O)(=O)c1ccc(NC(=O)CSc2nnc(C(F)F)n2-c2ccc(C3CC3)c3ccccc23)c(Cl)c1` [compound 44] was tested, and the EC50 [1] was < 50 nM, the EC50 [2] was < 50 nM and the EC50 [3] was < 50 nM. For the same molecule, the IC50 [4] was < 50 nM.
`Cc1ccc(-n2c(C)nnc2SCC(=O)Nc2ccc(S(N)(=O)=O)cc2Cl)c2c1CCCC2` [compound 46] was tested, and the EC50 [1] was < 50 nM, the EC50 [2] was < 50 nM and the EC50 [3] was < 50 nM. For the same molecule, the IC50 [4] was < 50 nM.
In the case of `CCc1ccc(-n2c(Br)nnc2SCC(=O)Nc2ccc(C(=O)NCC(=O)OC)cc2Cl)c2ccccc12` [compound 98], the EC50 [1] is reported as < 50 nM, the EC50 [2] is reported as < 50 nM and the EC50 [3] is reported as < 50 nM. The IC50 [4] was < 50 nM.
With `CCc1ccc(-n2c(C)nnc2SCC(=O)Nc2ccc(S(N)(=O)=O)cc2Cl)c2c1CCCC2` [compound 43] the EC50 [1] was < 50 nM, the EC50 [2] was < 50 nM and the EC50 [3] was < 50 nM. For the same molecule, the IC50 [4] was < 50 nM.
